Measured values reported in US8735439B2, “Chlorin e6-folic acid conjugate, preparation method thereof, and a pharmaceutical composition for the treatment of cancer comprising the same” (Diatech Korea Co., Ltd., priority 2009, dated 2014).

What was measured:
[1] = in benzol, standard to estimate γ; cited from earlier work
Hela cells [2] = assay: Phototoxicity, 24 h incubation, 1.5-15 joule/cm^2; assay type: cell-based; settings: 670-690 nm
Method: In other experiment, the cells were incubated with photosensitizers at 37° C. for 24 hours, and irradiated by exposed on ice by a laser medical device “LD 680-2000” (wavelength of 670-690 nm) in a dose of 1.5-15 joule/cm^2.

Hela cells [3] = assay: Competition assay with exogenous folic acid, uptake in Hela cells; assay type: cell-based; settings: 4 μM/l folic acid, 24 hours
From the text: Then, the sample was centrifuged, the supernatant was taken, and the pellet was rewashed with cooled Hank's solution. The obtained pellet was again transferred into Hank's solution.

HeLa tumor cells = assay: Cytotoxicity (antiproliferative assay) in the absence of light exposure; assay type: cell-based; settings: for number of HeLa cells: no light, 24 hours
Method: Cytotoxicity was analyzed, considering the intensity of proliferative processes in cells, photosensitizer concentration, and dose of optical power. For each point, 3 flasks with cell monolayer were used.
The monolayer culture of HeLa tumor cells was chosen and used as the cell.
The culture of HeLa tumor cells was grown in nutrient medium 199 or in nutrient medium containing hemohydrolyzate supplemented with 10% fetal bovine serum and […] of kanamycin. […]
Flasks with light-protective cover (dark cytotoxicity) were incubated at 37.5° C. for 1 hour. The cells were washed with Hank's solution 4 times. 2.0 ml of fresh nutrient medium were added, and the cells were irradiated at the temperature of melting ice for 5, 10, 15 or 20 mins by the light flux of a “METALAZ” laser medical device (wavelength: 627.8 nm, 578.2 or 510.6 nm) or “LD 680-2000” (wavelength: 670-690 nm), depending on the wavelength of maximum spectral absorption of the studied photosensitizer, at a dose of 40 J/cm^2. After 20-24 hours, the number of tumor cell was counted in Goriaev's chamber.

Hela cells [4] = assay: Accumulation in Hela cells; assay type: cell-based; settings: for concentration in Hela cells: 2×10^−5 M/l, 37° C.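 On concentration in Hela cells: measured as suspension fluorescence intensity at excitation 405 nm and emission 665 nm.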
Method: The cellular accumulation and the targeted delivery of the photoactive compounds were investigated using Hela cells, which is one of the numerous tumor cell types that overexpress folate receptors.
Cells were cultivated for 3 days in medium 199, and transferred to Hank's solution/medium 199 (9/1). After 3 hours, the cell were collected by trypsin treatment from the substrate and placed in Hank's solution (10^5 ? /ml). To cell suspensions, chlorin e6 conjugates were added at a concentration of 2×10^−5 M/l, and incubated at 37° C. After 1, 5, 10, 15, and 24 hours, the samples were centrifuged, the pellet was washed with the cooled Hank's solution, and transferred to Hank's solution at a concentration being equal to that in the initial suspension.

HeLa cell culture = assay: Phototoxicity (photodynamic activity), 3.5 h incubation, 3.3 joule/cm^2; assay type: cell-based; parameters: number of HELA cells relative to the control: unit not given here; settings: 3.5 hours incubation, photoexposure 3.3 joule/cm^2
Method: To examine the photodynamic effects of a photosensitizer on a HeLa cell culture, the photosensitizer solution was added to the nutrient media at a final concentration of 0.1, 0.5, 1.0, 5.0 or 10 mcg/ml on day 3 after transplanting the cell culture into flasks. The flasks were wrapped with a light protecting cover, and incubated at 37° C. for 3.5 hours. Then, the cells were washed with Hank's solution, and exposed on ice by a laser medical device “LD 680-2000” (wavelength: 670-690 nm) at a dose of 3.3 joule/cm^2. After 20-24 hours, the available cell monolayer was dispersed using a 0.02%-Versene solution, and the number of tumor cells was calculated in Goriaev's chamber. For each point, 3 flasks were used.

[5] = test system: transporter of restored vectors (TRV); settings: cited from earlier work; for Km: read-out: KM (affinity of the carrier TRV)

In the case of `CCC1=C(CC)c2cc3[n-]c(cc4nc(cc5[n-]c(cc1n2)c(CC)c5CC)C(CC)=C4CC)c(CC)c3CC.[Pd+2]` [Pd(II)-octa ethyl porphyrin], the “γ of the standard” value [1] is listed as “one”.
For `C=Cc1c(C)c2cc3nc(c(CC(=O)O)c4[nH]c(cc5nc(cc1[nH]2)C(C)=C5CC)c(C)c4C(=O)O)C(CCC(=O)O)C3C` (stereo not drawn) [chlorin e6, 13-carboxy-17-[2-carboxyethyl]-15-carboxymethyl-17,18-trans-dihydro-3-vinyl-8-ethyl-2,7,12,18-tetramethylporphyrin], the “phototoxicity in survival test” value (Hela cells [2]) was “little phototoxicity”, the “effect of free folic acid on uptake in Hela cells” value (Hela cells [3]) was “no significant effect” and the “cytotoxicity in the absence of light exposure” value (HeLa tumor cells; Hela cells, 24 hr incubation) was “no cytotoxicity”. The cell survival rate (HeLa tumor cells; Hela cells, 24 hr incubation, absence of light exposure) was “about 90%”, the “number of HeLa cells” value (HeLa tumor cells; photosensitizer conc. 1 (μm)) was 101.3 percentage of the control and the “number of HeLa cells” value (HeLa tumor cells; photosensitizer conc. 2.5 (μm)) was 99.1 percentage of the control. For the same molecule, the “number of HeLa cells” value (HeLa tumor cells; photosensitizer conc. 5.0 (μm)) was 98.4 percentage of the control, the “number of HeLa cells” value (HeLa tumor cells; photosensitizer conc. 10.0 (μm)) was 95.5 percentage of the control and the “number of HeLa cells” value (HeLa tumor cells; photosensitizer conc. 20.0 (μm)) was 90.0 percentage of the control. The “number of HeLa cells” value (HeLa tumor cells; photosensitizer conc. 30.0 (μm)) was 89.7 percentage of the control, the “time in which the majority binds with cells” value (Hela cells [4]; Hela cells) was ≤ 5 h and the “concentration in Hela cells” value (Hela cells [4]; incubation 1 hour) was 0.86 relative units/10^4 cl. For the same molecule, the “concentration in Hela cells” value (Hela cells [4]; incubation 5 hours) was 1.45 relative units/10^4 cl, the “concentration in Hela cells” value (Hela cells [4]; incubation 10 hours) was 1.72 relative units/10^4 cl and the “concentration in Hela cells” value (Hela cells [4]; incubation 15 hours) was 0.81 relative units/10^4 cl. The “concentration in Hela cells” value (Hela cells [4]; incubation 24 hours) was 0.40 relative units/10^4 cl, the “number of HELA cells relative to the control” value (HeLa cell culture; 0.1 mcg/ml) was 87.1 and the “number of HELA cells relative to the control” value (HeLa cell culture; 0.5 mcg/ml) was 83.6. The “number of HELA cells relative to the control” value (HeLa cell culture; 1.0 mcg/ml) was 64.7, the “number of HELA cells relative to the control” value (HeLa cell culture; 5.0 mcg/ml) was 19 and the “number of HELA cells relative to the control” value (HeLa cell culture; 10.0 mcg/ml) was 3.8.
For `Nc1nc(O)c2nc(CNc3ccc(C(=O)N[C@@H](CCC(=O)O)C(=O)O)cc3)cnc2n1` [folic acid, N-[4(2-Amino-4-hydroxypteridin-6-ylmethylamino)benzoyl]-L(+)-glutamic acid], the “affinity of TRV-mediated transport” value [5] is listed as “about 200 μM” and the Km ([5]; tumor cells) is listed as 100 to 200 µM.
For `CN(Cc1cnc2nc(N)nc(N)c2n1)c1ccc(C(=O)N[C@@H](CCC(=O)O)C(=O)O)cc1` [methotrexate], the “maximum rate of TRV transport” value ([5]; tumor cells) is given as 1-12 nmol/min per cellular protein (g) and the Km ([5]; tumor cells) is given as 4 to 8 µM.
